Assays:
GST-hRIPK1 (8-327) = GST-hRIPK1 (8-327) (Homo sapiens (Human), UniProt Q13546); test: Fluorescent Polarization Binding (FP Binding) assay
[1] = tested on: FADD-deficient Jurkat cells; test: Cellular necroptosis assay (human TNFα-induced necrosis, CellTiter-Glo); type: cell-based; settings: Homo sapiens, Jurkat, 48 h, TNFα 10 ng/mL, read-out: Cell IC50

Chain of GST-hRIPK1 (8-327) (Q13546 8-327): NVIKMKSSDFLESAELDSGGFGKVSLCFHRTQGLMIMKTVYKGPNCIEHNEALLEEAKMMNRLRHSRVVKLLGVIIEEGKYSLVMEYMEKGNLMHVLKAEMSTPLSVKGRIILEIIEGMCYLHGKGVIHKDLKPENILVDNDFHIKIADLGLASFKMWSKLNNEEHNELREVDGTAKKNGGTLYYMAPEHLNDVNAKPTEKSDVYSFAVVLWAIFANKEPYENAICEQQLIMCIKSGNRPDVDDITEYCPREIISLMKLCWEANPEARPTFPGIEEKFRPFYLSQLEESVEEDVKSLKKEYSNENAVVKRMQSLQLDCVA

Compound	IC50 (GST-hRIPK1 (8-327))	IC50 [1]
CN1C(=O)[C@@H](NC(=O)c2nnc(Cc3ccccc3)[nH]2)COc2c(Cl)cccc21 [Example 32, (S)-5-benzyl-N-(9-chloro-5-methyl-4-oxo-2,3,4,5-tetrahydrobenzo[b][1,4]oxazepin-3-yl)-4H-1,2,4-triazole-3-carboxamide]	0.1 to 1000 nM	0.1 to 1000 nM
CN1C(=O)[C@@H](NC(=O)c2nnc(C3(c4ccccc4)CC3)[nH]2)COc2ccccc21 [Example 35, (S)—N-(5-methyl-4-oxo-2,3,4,5-tetrahydrobenzo[b][1,4]oxazepin-3-yl)-5-(1-phenylcyclopropyl)-4H-1,2,4-triazole-3-carboxamide]	0.1 to 1000 nM	0.1 to 1000 nM
Cc1nc2c(s1)CC[C@H](NC(=O)c1nnc(Cc3ccccc3)[nH]1)C(=O)N2C [Example 38A, (S)-5-benzyl-N-(2,4-dimethyl-5-oxo-5,6,7,8-tetrahydro-4H-thiazolo[4,5-b]azepin-6-yl)-4H-1,2,4-triazole-3-carboxamide]	0.1 to 1000 nM	0.1 to 1000 nM
CN1C(=O)[C@@H](NC(=O)c2nnc(Cc3ccccc3)[nH]2)COc2cnccc21 [Example 41, (S)-5-benzyl-N-(1-methyl-2-oxo-1,2,3,4-tetrahydropyrido[3,4-b][1,4]oxazepin-3-yl)-4H-1,2,4-triazole-3-carboxamide]	0.1 to 1000 nM	0.1 to 1000 nM
CN1C(=O)[C@@H](NC(=O)c2nnc(Cc3ccccc3)[nH]2)CC2(CC2)c2ccccc21 [Example 44, (S)-5-benzyl-N-(1-methyl-2-oxo-1,2,3,4-tetrahydrospiro[benzo[b]azepine-5,1′-cyclopropan]-3-yl)-4H-1,2,4-triazole-3-carboxamide]	0.1 to 1000 nM	0.1 to 1000 nM
Cc1c(F)c(C(=O)N[C@H]2COc3ccccc3NC2=O)nn1Cc1ccccc1 [Example 45, (S)-1-benzyl-4-fluoro-5-methyl-N-(4-oxo-2,3,4,5-tetrahydrobenzo[b][1,4]oxazepin-3-yl)-1H-pyrazole-3-carboxamide]	0.1 to 1000 nM	0.1 to 1000 nM
CN1C(=O)[C@@H](NC(=O)c2nnc(C3CCc4ccccc43)[nH]2)COc2ccccc21 (stereo partly drawn) [Example 51, 5-(2,3-dihydro-1H-inden-1-yl)-N—((S)-5-methyl-4-oxo-2,3,4,5-tetrahydrobenzo[b][1,4]oxazepin-3-yl)-4H-1,2,4-triazole-3-carboxamide]	0.1 to 1000 nM	0.1 to 1000 nM
CN1C(=O)[C@@H](NC(=O)c2nnc([C@@H]3CCc4ccccc43)[nH]2)COc2cccnc21 [Example 54A, 5-((R)-2,3-dihydro-1H-inden-1-yl)-N—((S)-5-methyl-4-oxo-2,3,4,5-tetrahydropyrido[3,2-b][1,4]oxazepin-3-yl)-4H-1,2,4-triazole-3-carboxamide]	0.1 to 1000 nM	0.1 to 1000 nM
CN1C(=O)[C@@H](NC(=O)c2nn(Cc3ccccn3)cc2F)COc2ccccc21 [Example 55, (S)-4-fluoro-N-(5-methyl-4-oxo-2,3,4,5-tetrahydrobenzo[b][1,4]oxazepin-3-yl)-1-(pyridin-2-ylmethyl)-1H-pyrazole-3-carboxamide]	0.1 to 1000 nM	0.1 to 1000 nM
CN1C(=O)[C@@H](NC(=O)c2nnc(Cc3ccccc3)[nH]2)COc2c(C#N)cccc21 [Example 56, (S)-5-benzyl-N-(9-cyano-5-methyl-4-oxo-2,3,4,5-tetrahydrobenzo[b][1,4]oxazepin-3-yl)-2H-1,2,4-triazole-3-carboxamide]	0.1 to 1000 nM	0.1 to 1000 nM
O=C(N[C@H]1COc2cccnc2NC1=O)c1nn(Cc2ccccc2)cc1F [Example 57, (S)-1-benzyl-4-fluoro-N-(4-oxo-2,3,4,5-tetrahydropyrido[3,2-b][1,4]oxazepin-3-yl)-1H-pyrazole-3-carboxamide]	0.1 to 1000 nM	0.1 to 1000 nM
CN1C(=O)[C@@H](NC(=O)c2nnc(C3(c4ccccc4)CC3)s2)COc2ccccc21 [Example 58, (S)—N-(5-methyl-4-oxo-2,3,4,5-tetrahydrobenzo[b][1,4]oxazepin-3-yl)-5-(1-phenylcyclopropyl)-1,3,4-thiadiazole-2-carboxamide]	0.1 to 1000 nM	0.1 to 1000 nM
C[C@H]1Oc2cccnc2NC(=O)[C@H]1NC(=O)c1nnc(Cc2ccccc2)[nH]1 [Example 96, 5-benzyl-N-((2R,3S)-2-methyl-4-oxo-2,3,4,5-tetrahydropyrido[3,2-b][1,4]oxazepin-3-yl)-4H-1,2,4-triazole-3-carboxamide]	0.1 to 1000 nM	0.1 to 1000 nM
CN1C(=O)[C@@H](NC(=O)c2ncc(C3(c4ccccc4)CC3)[nH]2)COc2cccnc21 [Example 99, (S)—N-(5-methyl-4-oxo-2,3,4,5-tetrahydropyrido[3,2-b][1,4]oxazepin-3-yl)-5-(1-phenylcyclopropyl)-1H-imidazole-2-carboxamide]	1000 to 10000 nM	0.1 to 1000 nM
CN1C(=O)[C@@H](NC(=O)c2cc(Oc3ccccc3F)ccn2)[C@H]2C[C@H]2c2cccnc21 [Example 100A, 4-(2-fluorophenoxy)-N-((1aS,2S,8bR)-4-methyl-3-oxo-1,1a,2,3,4,8b-hexahydrocyclopropa[d]pyrido[2,3-b]azepin-2-yl)picolinamide]	0.1 to 1000 nM	0.1 to 1000 nM
CN1C(=O)[C@@H](NC(=O)c2nnc(Cc3ccccc3)[nH]2)CCc2c1cnn2C [Example 101B, (S)-5-benzyl-N-(1,4-dimethyl-5-oxo-1,4,5,6,7,8-hexahydropyrazolo[4,3-b]azepin-6-yl)-4H-1,2,4-triazole-3-carboxamide]	0.1 to 1000 nM	0.1 to 1000 nM
O=C(N[C@H]1CC2(CC2)c2cc(F)cc(F)c2NC1=O)c1nnc(Cc2ccccc2)[nH]1 [Example 103B, (S)-5-benzyl-N-(7,9-difluoro-2-oxo-1,2,3,4-tetrahydrospiro[benzo[b]azepine-5,1′-cyclopropan]-3-yl)-4H-1,2,4-triazole-3-carboxamide]	0.1 to 1000 nM	0.1 to 1000 nM
CN1C(=O)[C@@H](NC(=O)c2nnc(Cc3ccccc3)[nH]2)CCc2nn(C)cc21 [Example 105A, (S)-5-benzyl-N-(2,4-dimethyl-5-oxo-2,4,5,6,7,8-hexahydropyrazolo[4,3-b]azepin-6-yl)-4H-1,2,4-triazole-3-carboxamide]	0.1 to 1000 nM	0.1 to 1000 nM
CN1C(=O)[C@@H](NC(=O)c2nn(Cc3ccccc3)cc2F)CCc2nn(C)cc21 [Example 109A, (S)-1-benzyl-N-(2,4-dimethyl-5-oxo-2,4,5,6,7,8-hexahydropyrazolo[4,3-b]azepin-6-yl)-4-fluoro-1H-pyrazole-3-carboxamide]	0.1 to 1000 nM	0.1 to 1000 nM
O=C(N[C@@H]1C(=O)Nc2ncccc2[C@@H]2C[C@H]12)c1nnc(Cc2ccccc2)[nH]1 [Example 110B, 5-benzyl-N-((1aS,2S,8bR)-3-oxo-1,1a,2,3,4,8b-hexahydrocyclopropa[d]pyrido[2,3-b]azepin-2-yl)-4H-1H-1,2,4-triazole-3-carboxamide]	0.1 to 1000 nM	0.1 to 1000 nM
CN1C(=O)[C@@H](NC(=O)c2nn(Cc3ccccc3)cc2F)CCc2cccnc21 [Example 111B, (S)-1-benzyl-4-fluoro-N-(9-methyl-8-oxo-6,7,8,9-tetrahydro-5H-pyrido[2,3-b]azepin-7-yl)-1H-pyrazole-3-carboxamide]	0.1 to 1000 nM	0.1 to 1000 nM

Reference: patent US10604535B2, “Compounds, compositions and methods” (Denali Therapeutics Inc., priority 2016, dated 2020)
